For 16 molecules, TGI results are on record in PubChem BioAssay (NCI).

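The compound was tested at five concentrations on cells cultured in 96-well plates, with a 48-hour exposure period. Definition used: TGI = concentration required for complete inhibition of growth.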

Test in all cases: NCI anticancer screen, dose series, 48 h
In experiment [1] the test system is DMS 273 small cell lung.
In experiment [2] the test system is HOP-92 NSCLC.
The subject of experiment [3] is RXF 393 renal.
Experiment [4] has as its system MALME-3M melanoma.
Experiment [5] deals with HT29 colon.
In experiment [6] the test system is HCT-15 colon.
In experiment [7] the test system is CAKI-1 renal.
The subject of experiment [8] is KM12 colon.
Experiment [9] concerns UO-31 renal.
Experiment [10] relates to SF-295 CNS.
For experiment [11], the system named is K-562 leukemia.
Experiment [12] deals with A549 NSCLC.
Experiment [13] deals with MOLT-4 leukemia.
Experiment [14] has as its system OVCAR-8 ovarian.
In experiment [15] the test system is OVCAR-5 ovarian.
Experiment [16] concerns UACC-62 melanoma.
For experiment [17], the system named is A498 renal.
In experiment [18] the test system is DU-145 prostate.
The test system of experiment [19] is NCI/ADR-RES ovarian.
Experiment [20] concerns T-47D breast.

In the case of `C[C@]12CCc3nn(-c4ccccc4)nc3C1CC[C@@H]1C2CC[C@]2(C)C(=O)CCC12` (some centres not stated), the TGI in experiment [1], in experiment [2], in experiment [3], in experiment [4], in experiment [5] and in experiment [6] was above 100 µM throughout. Moreover, the TGI in experiment [7], in experiment [8], in experiment [9], in experiment [10], in [11] and in [12] was above 100 µM throughout. The TGI in experiment [13], in experiment [14], in experiment [15] and in [16] was above 100 µM in each case.

Regarding `CCCC(C(=O)OC)C1N=C(NC#N)N(Cc2ccccc2)C1=O` (configuration not stated), the TGI in [1], in [3], in experiment [4], in experiment [5], in [6] and in [7] was above 100 µM in each case. The TGI in experiment [8], in experiment [9], in [10], in experiment [11], in experiment [12] and in [13] was above 100 µM in each case. Also, the TGI in experiment [14], in experiment [15] and in [16] was above 100 µM throughout.

Regarding `CC(N)C(C)c1ccccc1` (configuration not stated), the TGI in experiment [1], in [2], in experiment [3], in experiment [4], in [5] and in [6] was above 100 µM throughout. Also, the TGI in experiment [7], in experiment [8], in experiment [9], in experiment [10], in experiment [11] and in [12] was above 100 µM throughout. In addition, the TGI in [13], in experiment [17], in experiment [14], in experiment [15] and in [16] was above 100 µM each time.

Turning to `CC(C)C(CCOS(=O)(=O)O)CCC(C)[C@H]1[C@@H](O)C(O)C2[C@]3(O)C[C@@H](O)C4(O)C[C@@H](O)CC[C@]4(C)C3CC[C@@]21C` (some centres not stated), the TGI in experiment [1], in experiment [2], in experiment [3], in [4], in [5] and in experiment [6] was above 100 µM throughout. The TGI in [7], in [8], in experiment [9], in experiment [10], in experiment [11] and in experiment [12] was above 100 µM throughout. For the same molecule, the TGI in experiment [14] and in experiment [16] was above 100 µM in each case.

Consider `N#C/C(=C\c1ccc[nH]1)C(=O)c1ccccc1`, for which the TGI in experiment [1], in experiment [2], in experiment [3], in experiment [4], in experiment [5] and in [6] was above 100 µM throughout. Besides, the TGI in experiment [7], in experiment [8], in experiment [9], in experiment [10], in experiment [11] and in experiment [12] was above 100 µM throughout. Further, the TGI in experiment [13], in [14], in experiment [15] and in [16] was above 100 µM throughout.

Regarding `Cn1c(=O)n(C2(C)CSC2)c2ccccc21`, the TGI in experiment [1], in [2], in [3], in [5], in experiment [6] and in experiment [7] was above 100 µM in each case. In addition, the TGI in experiment [8], in experiment [9], in experiment [10], in experiment [11], in experiment [12] and in experiment [13] was above 100 µM each time. In addition, the TGI in experiment [17], in experiment [14], in experiment [15] and in experiment [16] was above 100 µM in each case.

As to `CCN(/N=C1\CC2C=CCN(C2)C(=O)Cc2c1[nH]c1ccccc21)S(=O)(=O)c1ccc(C)cc1` (configuration not stated), the TGI in [1], in experiment [4], in experiment [6], in [7], in experiment [8] and in experiment [9] was above 100 µM throughout. The TGI in [10], in [11], in experiment [12], in [13], in [14] and in experiment [16] was above 100 µM throughout.

Regarding `C/C(CCN(C)C)=N\OC(=O)c1ccccc1`, the TGI in [1], in experiment [2], in experiment [3], in experiment [4], in experiment [5] and in [7] was above 100 µM each time. Besides, the TGI in experiment [8], in experiment [9], in experiment [10], in [11], in experiment [12] and in experiment [13] was above 100 µM throughout. In addition, the TGI in experiment [17], in experiment [14], in experiment [15] and in [16] was above 100 µM throughout.

On to `CCN(CC)C(=O)CC12CCCCC1=Nc1ccccc12` (configuration not stated), for which the TGI in [1], in experiment [2], in experiment [4], in experiment [5], in experiment [6] and in experiment [7] was above 100 µM each time. The TGI in experiment [8], in experiment [10], in experiment [11], in experiment [12], in experiment [13] and in [17] was above 100 µM each time. Also, the TGI in experiment [14], in experiment [15] and in experiment [16] was above 100 µM each time.

For `C=C1CN2CCc3c([nH]c4ccccc34)C2CC1CC(=O)N(C)C` (configuration not stated), the TGI in [1], in experiment [2], in experiment [3], in experiment [4], in experiment [5] and in [6] was above 309 µM in each case. For the same molecule, the TGI in experiment [7], in [8], in [10], in experiment [11], in experiment [12] and in [13] was above 309 µM each time. The TGI in [14] and in experiment [16] was above 309 µM throughout.

On to `CSC1=Nc2ccccc2N=C(c2ccccc2)C1`, for which the TGI is above 100 µM in [1]; 85.3 µM in experiment [2]; 71.6 µM in experiment [3]; above 100 µM in experiment [4]; above 100 µM in experiment [5]; above 100 µM in experiment [6]. Moreover, the TGI in experiment [7], in experiment [8], in experiment [9], in [10], in experiment [11] and in [12] was above 100 µM each time. Further, the TGI in experiment [13], in experiment [17], in experiment [14], in experiment [15] and in experiment [16] was above 100 µM throughout.

As for `COC(=O)C(C(=O)C(=O)Nc1ccccc1C)c1nc2ccc([N+](=O)[O-])cc2[nH]c1=O` (configuration not stated), the TGI in experiment [1], in experiment [3], in [4], in [5], in experiment [6] and in experiment [7] was above 100 µM throughout. For the same molecule, the TGI in [8], in experiment [9], in [10], in experiment [11], in experiment [12] and in [13] was above 100 µM in each case. The TGI in experiment [17], in [14], in experiment [15] and in [16] was above 100 µM each time.

Turning to `COC(=O)C1=CCC2c3[nH]c4ccccc4c3CCN2C1` (configuration not stated), the TGI in experiment [1], in experiment [2], in experiment [3], in experiment [4], in [5] and in [6] was above 354 µM each time. For the same molecule, the TGI in experiment [7], in experiment [8], in [10], in experiment [11], in experiment [12] and in experiment [13] was above 354 µM throughout. The TGI in experiment [14] and in [16] was above 354 µM in each case.

On to `C[C@@H]1CC[C@@]2(C)[C@H](C)/C(=C\COC(=O)/C=C/c3ccc(O)c(O)c3)CC[C@@]12C`, for which the TGI worked out at 29.7 µM in experiment [2]; 23.4 µM in experiment [18]; 39.1 µM in experiment [3]; 27.8 µM in experiment [4]; 25.1 µM in experiment [5]; 16.1 µM in experiment [6]. In addition, the TGI in experiment [7] amounted to 15 µM; in experiment [19], 23.5 µM; in experiment [8], 15.9 µM; in [9], 28 µM; in [10], 23.2 µM; in experiment [11], 17.8 µM. In addition, the TGI in experiment [12] amounted to 35.8 µM; in experiment [20], 34.7 µM; in [13] it was 8.9 µM; in [17] it was 25.8 µM; in experiment [14] it was 24.1 µM; in experiment [15], 35 µM. Further, the TGI in experiment [16] turned out to be 22.1 µM.

With `CC(=O)O[C@@H]1CC[C@@]2(C)C(=O)C34C[C@@]5(C)C([C@@H](C)CCCC(C)C)CCC5(C)[C@](O)(O3)C(=O)[C@H]4C2C1(C)C` (some centres not stated), the TGI in [1] amounted to 27.2 µM; in [2] it was 34.5 µM; in [4] it was 33.2 µM; in [5] it was 25.6 µM; in [6], 26.5 µM; in experiment [7], 29.8 µM. The TGI is 24 µM in experiment [8]; 26 µM in [9]; 29.8 µM in [10]; 29.9 µM in experiment [11]; 29.1 µM in [12]; 28.8 µM in experiment [13]. For the same molecule, the TGI in experiment [17] was 38.5 µM; in experiment [14], 32.9 µM; in [15], 29.3 µM; in [16] it was 32.6 µM.

For the molecule `CCN(CC)CCSc1c(C(C)=O)c(=O)n(-c2ccccc2)c(=S)n1-c1ccccc1`, the TGI in [2] was found to be 5.8 µM; in [18], 10 µM; in experiment [3] it was 3.94 µM; in experiment [4], 20.7 µM; in experiment [5] it was 37.7 µM; in experiment [6], 8.86 µM. Besides, the TGI in experiment [7] was 24 µM; in [19], 63.4 µM; in experiment [8] it was 35 µM; in experiment [9], 3.86 µM; in experiment [10], above 100 µM; in [11], above 43.7 µM. Further, the TGI in [12] was 30 µM; in [20], 8.36 µM; in experiment [13], 19.3 µM; in experiment [17] it was 40.6 µM; in experiment [14], 10.9 µM; in experiment [15], 53.2 µM. The molecule also displayed a TGI in experiment [16] of 27.7 µM.
